Patent publication US20240166652A1, “MODULATORS OF THE INTEGRATED STRESS PATHWAY” (Calico Life Sciences LLC, priority 2017, published 2024)

tested on: ATF4 luciferase reporter in HEK293T cells; assay: ATF4-Luc assay (ATF4 luciferase reporter, tunicamycin-treated HEK293T cells); assay type: cell-based, human; settings: Homo sapiens, HEK-293T; HEK293T cells carrying the ATF4 luciferase reporter, 1 μg/mL tunicamycin, 7 hours

| Structure (SMILES) | EC50 [nM] |
| --- | --- |
| O=C(COc1ccc(Cl)c(F)c1)NC12CCC(NC(=O)COc3ccc(Cl)c(F)c3)(CC1)C(NC1COC1)C2 (stereo not drawn) [Compound 722, N,N′-{2-[(oxetan-3-yl)amino]bicyclo[2.2.2]octane-1,4-diyl}bis[2-(4-chloro-3-fluorophenoxy)acetamide]] | < 10 |
| O=C(COc1ccc(Cl)c(F)c1)NC12CC(NS(=O)(=O)CCOc3ccccc3F)(C1)C2 [Compound 485, 2-(4-chloro-3-fluorophenoxy)-N-(3-{[2-(2-fluorophenoxy)ethanesulfonyl]amino}bicyclo[1.1.1]pentan-1-yl)acetamide] | 500 to 2000 |
| O=C(COc1ccc(Cl)c(F)c1)NC12CCC(NC(=O)COc3ccon3)(CC1)[C@@H](O)C2 [Compound 639, 2-(4-chloro-3-fluorophenoxy)-N-[(3S)-3-hydroxy-4-{2-[(1,2-oxazol-3-yl)oxy]acetamido}bicyclo[2.2.2]octan-1-yl]acetamide] | 50 to 250 |
| O=C(COc1ccc(Cl)c(F)c1)NC12CC(NC(=O)[C@H](O)CCc3ccccc3)(C1)C2 [Compound 462, (2R)-N-{3-[2-(4-chloro-3-fluorophenoxy)acetamido]bicyclo[1.1.1]pentan-1-yl}-2-hydroxy-4-phenylbutanamide] | > 2000 |
| O=C(COc1cncc(C(F)(F)F)c1)NC12CC(NC(=O)COc3ccc4c(c3)OC(F)(F)O4)(C1)C2 [Compound 269, 2-[(2,2-difluoro-2H-1,3-benzodioxol-5-yl)oxy]-N-[3-(2-{[5-(trifluoromethyl)pyridin-3-yl]oxy}acetamido)bicyclo[1.1.1]pentan-1-yl]acetamide] | 10 to 50 |
| O=C(COc1ccc(Cl)c(F)c1)N[C@]12CC[C@H](C1)[C@@H](NCCOc1ccc(Cl)c(F)c1)[C@H](O)C2 (racemic) [Compound 649, rac-2-(4-chloro-3-fluorophenoxy)-N-[(1R,3R,4R,5R)-4-{[2-(4-chloro-3-fluorophenoxy)ethyl]amino}-3-hydroxybicyclo[3.2.1]octan-1-yl]acetamide] | < 10 |
| O=C(COc1ccc(Cl)c(F)c1)NC12CC(NS(=O)(=O)Cc3ccc(C(F)(F)F)cc3)(C1)C2 [Compound 426, 2-(4-chloro-3-fluorophenoxy)-N-[3-({[4-(trifluoromethyl)phenyl]methanesulfonyl}amino)bicyclo[1.1.1]pentan-1-yl]acetamide] | 50 to 250 |
| O=C(COc1ccc(Cl)c(F)c1)NC12CCC(NC(=O)COc3ccc(Cl)c(F)c3)(CC1)C1(CO1)C2 (stereo not drawn) [Compound 654, N,N′-(spiro[bicyclo[2.2.2]octane-2,2′-oxirane]-1,4-diyl)bis[2-(4-chloro-3-fluorophenoxy)acetamide]] | < 10 |
| O=C(COc1ccc(F)c(F)c1)NC12CCC(NC(=O)COc3ccc(Cl)c(F)c3)(CC1)[C@@H](O)C2 [Compound 586, 2-(4-chloro-3-fluorophenoxy)-N-{(2S)-4-[2-(3,4-difluorophenoxy)acetamido]-2-hydroxybicyclo[2.2.2]octan-1-yl}acetamide] | < 10 |
| O=C(COc1ccc(F)c(Cl)c1)NC12CCC(NC(=O)COc3ccc(F)c(Cl)c3)(CC1)[C@@H](O)C2 [Compound 588, N,N′-[(2S)-2-hydroxybicyclo[2.2.2]octane-1,4-diyl]bis[2-(3-chloro-4-fluorophenoxy)acetamide]] | < 10 |
| O=C(COc1ccc2c(c1)OC(F)(F)O2)NC12CCC(NC(=O)COc3ccc(F)cc3)(CC1)[C@@H](O)C2 [Compound 798, 2-[(2,2-difluoro-2H-1,3-benzodioxol-5-yl)oxy]-N-{(3S)-4-[2-(4-fluorophenoxy)acetamido]-3-hydroxybicyclo[2.2.2]octan-1-yl}acetamide] | < 10 |
| O=C(COc1ccc(Cl)c(F)c1)NC12CCC(NS(=O)(=O)Cc3ccc(C(F)(F)F)cc3)(CC1)[C@@H](O)C2 [Compound 429, 2-(4-chloro-3-fluorophenoxy)-N-[(3S)-3-hydroxy-4-({[4-(trifluoromethyl)phenyl]methanesulfonyl}amino)bicyclo[2.2.2]octan-1-yl]acetamide] | 50 to 250 |
